Assay results published in ChEMBL document CHEMBL6092221, “Discovery of a Novel Macrocyclic Noncovalent CDK7 Inhibitor for Cancer Therapy” (J Med Chem, 2024).
In brackets after ≈: the same amount, converted by molar mass.

Key:
[1] = Clearance in female Balb/c nude mouse at 1 mg/kg, iv; type: ADME, organism-based; settings: in vivo
[2] = Volume of distribution at steady state in female Balb/c nude mouse at 1 mg/kg, iv; type: ADME, organism-based; settings: in vivo, read-out: Vdss
[3] = Permeability in human Caco-2 cells; type: ADME, cell-based; settings: read-out: permeability
[4] = Cmax in female Balb/c nude mouse at 5 mg/kg, po; type: ADME, organism-based; settings: in vivo
[5] = AUC(0 to t) in female Balb/c nude mouse at 5 mg/kg, po; type: ADME, organism-based; settings: in vivo
[6] = Half life in mouse at 1 mg/kg, iv; type: ADME, organism-based; settings: in vivo
[7] = Volume of distribution at steady state in mouse at 1 mg/kg, iv; type: ADME, organism-based; settings: in vivo, read-out: Vdss
[8] = Volume of distribution at steady state in dog at 0.2 mg/kg, iv; type: ADME, organism-based, Canis lupus familiaris; settings: in vivo, read-out: Vdss
[9] = AUC(0 to t) in rat at 5 mg/kg, po; type: ADME, organism-based; settings: in vivo
[10] = Cmax in rat at 5 mg/kg, po; type: ADME, organism-based; settings: in vivo
[11] = Oral bioavailability in rat at 5 mg/kg; type: ADME, organism-based; settings: in vivo
[12] = Drug concentration in rat plasma at 5 mg/kg, po measured after 8 hrs; type: ADME, organism-based
[13] = Half life in Sprague-Dawley rat at 30 mg/kg, po; type: ADME, organism-based; settings: in vivo
[14] = Half life in Sprague-Dawley rat at 100 mg/kg, po; type: ADME, organism-based; settings: in vivo
[15] = Cmax in Sprague-Dawley rat at 30 mg/kg, po; type: ADME, organism-based; settings: in vivo
[16] = Cmax in Sprague-Dawley rat at 100 mg/kg, po; type: ADME, organism-based; settings: in vivo
[17] = AUC(0 to 24 hrs) in Sprague-Dawley rat at 30 mg/kg, po; type: ADME, organism-based; settings: in vivo
[18] = AUC(0 to 48 hrs) in Sprague-Dawley rat at 300 mg/kg, po; type: ADME, organism-based; settings: in vivo
[19] = target: Cyclin-dependent kinase 14/Cyclin-Y (Homo sapiens, UniProt O94921); assay: Inhibition of CDK14/Cyclin Y (unknown origin); type: protein-complex assay
Cyclin-dependent kinase 14/Cyclin-Y, sequence (O94921 whole entry): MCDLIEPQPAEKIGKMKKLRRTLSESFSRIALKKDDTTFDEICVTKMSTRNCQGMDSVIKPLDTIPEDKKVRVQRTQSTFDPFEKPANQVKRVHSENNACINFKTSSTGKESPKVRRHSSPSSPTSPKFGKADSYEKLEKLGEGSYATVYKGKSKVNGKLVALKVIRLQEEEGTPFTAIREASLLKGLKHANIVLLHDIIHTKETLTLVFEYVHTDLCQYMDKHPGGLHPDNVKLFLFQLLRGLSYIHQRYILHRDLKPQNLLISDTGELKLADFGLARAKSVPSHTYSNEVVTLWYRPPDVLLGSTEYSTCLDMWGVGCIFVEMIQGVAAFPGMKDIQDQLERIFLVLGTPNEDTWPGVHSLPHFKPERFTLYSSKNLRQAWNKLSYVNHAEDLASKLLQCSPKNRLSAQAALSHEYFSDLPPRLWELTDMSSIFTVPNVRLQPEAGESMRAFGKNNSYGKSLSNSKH
Cyclin-dependent kinase 14/Cyclin-Y, sequence (Q8ND76 whole entry, further chain): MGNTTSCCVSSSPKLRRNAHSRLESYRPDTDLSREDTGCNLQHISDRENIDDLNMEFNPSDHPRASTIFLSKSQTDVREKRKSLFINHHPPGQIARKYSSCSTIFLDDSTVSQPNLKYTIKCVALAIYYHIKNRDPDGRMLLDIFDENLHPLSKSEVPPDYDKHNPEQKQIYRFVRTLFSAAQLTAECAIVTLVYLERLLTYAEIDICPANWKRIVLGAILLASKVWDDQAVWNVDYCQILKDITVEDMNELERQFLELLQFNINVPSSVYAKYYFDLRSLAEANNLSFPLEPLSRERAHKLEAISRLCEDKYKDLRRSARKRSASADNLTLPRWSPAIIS

[20] = target: Cyclin-dependent kinase 4/cyclin D1 (Homo sapiens, UniProt P11802); assay: Inhibition of CDK4/CyclinD1 (unknown origin); type: protein-complex assay
[21] = target: Homeodomain-interacting protein kinase 4 (Homo sapiens, UniProt Q8NE63); assay: Inhibition of HIPK4 (unknown origin)
CDK4/Cyclin D3 = CDK4/Cyclin D3 (Homo sapiens, UniProt P11802); assay: Inhibition of CDK4/Cyclin D3 (unknown origin); type: protein-complex assay
[22] = target: Serine/threonine-protein kinase TAO1 (Homo sapiens, UniProt Q7L7X3); assay: Inhibition of TAOK1 (unknown origin)
Serine/threonine-protein kinase TAO1, sequence (Q7L7X3 whole entry): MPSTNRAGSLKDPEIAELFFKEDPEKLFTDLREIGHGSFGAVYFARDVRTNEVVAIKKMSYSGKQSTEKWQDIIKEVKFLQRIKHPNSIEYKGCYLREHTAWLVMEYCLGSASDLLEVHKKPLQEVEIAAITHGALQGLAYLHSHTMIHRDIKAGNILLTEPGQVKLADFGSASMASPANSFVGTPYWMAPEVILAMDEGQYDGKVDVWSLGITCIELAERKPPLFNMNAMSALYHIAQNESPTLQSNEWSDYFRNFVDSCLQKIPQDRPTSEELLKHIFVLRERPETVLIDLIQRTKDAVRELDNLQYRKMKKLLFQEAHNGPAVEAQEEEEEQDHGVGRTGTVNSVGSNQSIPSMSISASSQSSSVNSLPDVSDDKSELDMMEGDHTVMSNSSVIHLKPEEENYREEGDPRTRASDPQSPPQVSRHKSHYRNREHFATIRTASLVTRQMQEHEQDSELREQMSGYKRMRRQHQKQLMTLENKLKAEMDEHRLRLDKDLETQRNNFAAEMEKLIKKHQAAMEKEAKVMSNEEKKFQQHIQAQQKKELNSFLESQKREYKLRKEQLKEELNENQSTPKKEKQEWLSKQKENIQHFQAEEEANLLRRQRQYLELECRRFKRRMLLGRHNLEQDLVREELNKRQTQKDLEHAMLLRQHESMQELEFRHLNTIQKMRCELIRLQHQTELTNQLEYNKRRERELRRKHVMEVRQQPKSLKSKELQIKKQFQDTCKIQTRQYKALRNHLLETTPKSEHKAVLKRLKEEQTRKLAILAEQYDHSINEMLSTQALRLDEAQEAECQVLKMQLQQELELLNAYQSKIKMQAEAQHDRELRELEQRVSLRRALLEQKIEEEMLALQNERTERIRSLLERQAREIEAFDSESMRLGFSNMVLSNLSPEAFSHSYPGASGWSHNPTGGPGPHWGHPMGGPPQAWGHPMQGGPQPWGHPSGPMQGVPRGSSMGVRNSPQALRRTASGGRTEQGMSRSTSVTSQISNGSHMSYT

[23] = Solubility of compound at pH 7.4; type: physicochemical; settings: buffer
[24] = Metabolic stability in rat liver microsomes assessed as intrinsic clearance; type: ADME, Microsome; settings: read-out: CLH
Cytochrome P450 2C19 = Cytochrome P450 2C19 (Homo sapiens, UniProt P33261); assay: Inhibition of CYP2C19 (unknown origin); type: ADME
Cytochrome P450 2C19, sequence (P33261 whole entry): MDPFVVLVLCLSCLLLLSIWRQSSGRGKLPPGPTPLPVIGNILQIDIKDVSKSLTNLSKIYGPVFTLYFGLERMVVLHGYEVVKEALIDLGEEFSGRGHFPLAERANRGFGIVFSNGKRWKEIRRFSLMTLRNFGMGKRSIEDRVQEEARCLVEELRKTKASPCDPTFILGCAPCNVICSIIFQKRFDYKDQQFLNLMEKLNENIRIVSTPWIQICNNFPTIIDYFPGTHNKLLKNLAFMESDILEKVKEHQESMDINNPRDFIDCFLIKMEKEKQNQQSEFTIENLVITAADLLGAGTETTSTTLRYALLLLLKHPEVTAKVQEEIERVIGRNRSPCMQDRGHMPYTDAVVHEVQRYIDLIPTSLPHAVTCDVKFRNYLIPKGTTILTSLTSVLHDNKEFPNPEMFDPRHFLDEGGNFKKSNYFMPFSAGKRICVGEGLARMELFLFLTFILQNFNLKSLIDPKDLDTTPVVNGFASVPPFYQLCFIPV

[25] = target: Voltage-gated inwardly rectifying potassium channel KCNH2 (Homo sapiens, UniProt Q12809); assay: Inhibition of hERG; type: toxicity
OVCAR-3 [26] = assay: Antitumor activity against human OVCAR-3 cells xenografted in female Balb/c nude mouse assessed as tumor growth inhibition at 5 mg/kg, po administered once daily and measured on day 22; type: functional; settings: OVCAR-3, 528 h, time 22 day, read-out: TGI
OVCAR-3 [27] = assay: Antitumor activity against human OVCAR-3 cells xenografted in female Balb/c nude mouse assessed as tumor growth inhibition at 10 mg/kg, po administered once daily and measured on day 22; type: functional; settings: OVCAR-3, 528 h, time 22 day, read-out: TGI
[28] = Toxicity in female Balb/c nude mouse xenografted with human OVCAR-3 cells assessed as body weight loss at 2 to 20 mg/kg, po administered once daily and measured for 3 weeks; type: organism-based; settings: in vivo, 504 h, dose 2-20 mg/kg
[29] = Half life in human OVCAR-3 cells xenografted in female Balb/c nude mouse plasma at 10 mg/kg, po administered once daily; type: ADME, organism-based
[30] = Half life in human HCC70 cells xenografted in female nu/nu mouse plasma at 3 mg/kg, po administered once daily; type: ADME, organism-based
[31] = Half life in human HCC70 cells xenografted in female nu/nu mouse plasma at 10 mg/kg, po administered once daily; type: ADME, organism-based
[32] = Cmax in human HCC70 cells xenografted in female nu/nu mouse plasma at 1 mg/kg, po administered once daily; type: ADME, organism-based
[33] = Cmax in human HCC70 cells xenografted in female nu/nu mouse plasma at 3 mg/kg, po administered once daily; type: ADME, organism-based
[34] = AUC(0 to t) in human HCC70 cells xenografted in female nu/nu mouse plasma at 1 mg/kg, po administered once daily; type: ADME, organism-based
[35] = AUC(0 to t) in human HCC70 cells xenografted in female nu/nu mouse plasma at 10 mg/kg, po administered once daily; type: ADME, organism-based
[36] = Toxicity in female nu/nu mouse xenografted with human HCC70 cells assessed as body weight loss at 1 to 10 mg/kg, po administered once daily and measured for 4 weeks; type: organism-based; settings: in vivo, 672 h, dose 1-10 mg/kg
[37] = target: Mitogen-activated protein kinase 15 (Homo sapiens) (UniProt Q8TD08); assay: Inhibition of Erk8 (unknown origin) at 200 nM relative to control; values are per cent of control
Mitogen-activated protein kinase 15 (Homo sapiens), sequence (Q8TD08 whole entry): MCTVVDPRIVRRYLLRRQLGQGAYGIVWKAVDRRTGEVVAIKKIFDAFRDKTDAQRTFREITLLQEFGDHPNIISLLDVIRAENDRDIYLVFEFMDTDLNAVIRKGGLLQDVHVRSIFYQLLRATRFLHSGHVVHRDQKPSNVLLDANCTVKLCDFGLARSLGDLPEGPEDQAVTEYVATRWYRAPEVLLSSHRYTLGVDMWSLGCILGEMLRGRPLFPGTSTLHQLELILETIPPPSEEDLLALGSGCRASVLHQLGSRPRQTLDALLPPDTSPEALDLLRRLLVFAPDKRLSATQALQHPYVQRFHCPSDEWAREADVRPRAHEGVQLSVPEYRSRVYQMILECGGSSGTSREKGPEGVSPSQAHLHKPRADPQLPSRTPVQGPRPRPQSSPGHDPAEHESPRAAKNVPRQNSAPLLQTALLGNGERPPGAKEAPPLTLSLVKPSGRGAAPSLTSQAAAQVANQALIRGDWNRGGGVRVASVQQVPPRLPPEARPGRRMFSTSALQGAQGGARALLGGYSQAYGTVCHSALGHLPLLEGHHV

[38] = target: Mitogen-activated protein kinase 7 (Homo sapiens, UniProt Q13164); assay: Inhibition of Erk5 (unknown origin) at 200 nM relative to control; values are per cent of control
[39] = target: Ribosomal protein S6 kinase alpha-3 (Homo sapiens, UniProt P51812); assay: Inhibition of RSK2 (unknown origin) at 200 nM relative to control; values are per cent of control
[40] = target: Homeodomain-interacting protein kinase 4 (Homo sapiens) (UniProt Q8NE63); assay: Inhibition of HIPK4 (unknown origin) at 200 nM relative to control; values are per cent of control
[41] = target: Serine/threonine-protein kinase D1 (Homo sapiens) (UniProt Q15139); assay: Inhibition of PRKD1 (unknown origin) at 200 nM relative to control; values are per cent of control
Serine/threonine-protein kinase D1 (Homo sapiens), sequence (Q15139 whole entry): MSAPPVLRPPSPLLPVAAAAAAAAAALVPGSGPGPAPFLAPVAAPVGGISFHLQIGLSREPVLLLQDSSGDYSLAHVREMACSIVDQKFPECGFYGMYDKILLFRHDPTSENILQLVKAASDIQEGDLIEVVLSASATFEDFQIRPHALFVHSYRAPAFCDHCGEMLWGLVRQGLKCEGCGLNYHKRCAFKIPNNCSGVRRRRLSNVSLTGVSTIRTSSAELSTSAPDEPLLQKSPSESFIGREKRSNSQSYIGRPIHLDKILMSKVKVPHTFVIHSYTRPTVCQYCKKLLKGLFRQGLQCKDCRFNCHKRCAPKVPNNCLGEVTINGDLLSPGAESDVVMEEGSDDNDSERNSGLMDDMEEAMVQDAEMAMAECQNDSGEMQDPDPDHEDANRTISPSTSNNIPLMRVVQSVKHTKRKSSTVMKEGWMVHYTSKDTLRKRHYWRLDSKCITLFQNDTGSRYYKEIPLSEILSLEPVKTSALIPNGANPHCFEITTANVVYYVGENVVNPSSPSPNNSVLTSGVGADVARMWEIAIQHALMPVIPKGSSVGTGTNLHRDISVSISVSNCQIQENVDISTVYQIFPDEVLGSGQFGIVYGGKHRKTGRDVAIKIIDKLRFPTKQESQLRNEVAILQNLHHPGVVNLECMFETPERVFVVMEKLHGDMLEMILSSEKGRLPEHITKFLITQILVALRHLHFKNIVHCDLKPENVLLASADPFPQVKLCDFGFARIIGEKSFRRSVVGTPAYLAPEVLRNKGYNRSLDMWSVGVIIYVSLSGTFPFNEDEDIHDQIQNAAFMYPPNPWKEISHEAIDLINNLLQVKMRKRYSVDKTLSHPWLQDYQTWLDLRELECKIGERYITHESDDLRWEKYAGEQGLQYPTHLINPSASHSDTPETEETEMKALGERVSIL

[42] = target: Serine/threonine-protein kinase D2 (Homo sapiens) (UniProt Q9BZL6); assay: Inhibition of PRKD2 (unknown origin) at 200 nM relative to control; values are per cent of control
Serine/threonine-protein kinase D2 (Homo sapiens), sequence (Q9BZL6 whole entry): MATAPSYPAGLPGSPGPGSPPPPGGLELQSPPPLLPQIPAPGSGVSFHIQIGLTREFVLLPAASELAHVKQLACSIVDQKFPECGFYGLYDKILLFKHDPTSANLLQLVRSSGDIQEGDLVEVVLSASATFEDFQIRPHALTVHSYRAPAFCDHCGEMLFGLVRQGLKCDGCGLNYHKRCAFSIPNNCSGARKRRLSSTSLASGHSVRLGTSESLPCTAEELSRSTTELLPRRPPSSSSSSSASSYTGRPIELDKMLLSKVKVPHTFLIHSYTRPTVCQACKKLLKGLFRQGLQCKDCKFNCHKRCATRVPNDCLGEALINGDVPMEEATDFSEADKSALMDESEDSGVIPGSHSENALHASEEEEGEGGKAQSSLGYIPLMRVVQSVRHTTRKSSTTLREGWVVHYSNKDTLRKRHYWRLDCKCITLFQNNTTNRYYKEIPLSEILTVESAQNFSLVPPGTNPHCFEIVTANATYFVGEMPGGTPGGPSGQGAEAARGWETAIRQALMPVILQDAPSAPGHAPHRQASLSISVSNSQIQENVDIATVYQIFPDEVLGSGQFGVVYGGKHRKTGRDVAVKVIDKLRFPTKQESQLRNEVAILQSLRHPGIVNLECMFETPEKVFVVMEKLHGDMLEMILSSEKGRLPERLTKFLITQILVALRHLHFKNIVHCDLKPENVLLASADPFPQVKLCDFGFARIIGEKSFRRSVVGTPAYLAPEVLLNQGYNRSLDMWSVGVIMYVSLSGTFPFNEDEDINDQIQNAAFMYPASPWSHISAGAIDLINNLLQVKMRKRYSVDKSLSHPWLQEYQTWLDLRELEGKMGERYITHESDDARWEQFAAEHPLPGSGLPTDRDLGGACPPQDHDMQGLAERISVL

[43] = target: Cyclin-dependent kinase 4/cyclin D1 (Homo sapiens) (UniProt P11802+P24385); assay: Inhibition of CDK4/CyclinD1 (unknown origin) at 200 nM relative to control; values are per cent of control
CDK18/Cyclin Y = CDK18/Cyclin Y (Homo sapiens, UniProt Q07002+Q8ND76); assay: Inhibition of CDK18/Cyclin Y (unknown origin) at 200 nM relative to control; values are per cent of control

Compound CN1CC(F)(F)CCN(C)[C@H]2CC[C@@H](C2)Nc2ncc(C(F)(F)F)c(n2)-c2c[nH]c3c(P(C)(C)=O)c(ccc23)C1=O has a clearance [1] of 52.6 mL/min/kg, a Vd [2] of 1.7 L/kg and a Papp [3] of 3.69 ×10⁻⁶ cm/s. It also gave a Cmax [4] of 355 ng/mL, an AUC(0-t) [5] of 938 ng·h/mL and a half-life [6] of 2 h. For the same compound, the Vd [7] was 1.7 L/kg, the Vd [8] was 0.24 L/kg and the AUC(0-t) [9] was 554 ng·h/mL. For the same compound, the Cmax [10] was 165 ng/mL, the bioavailability [11] was 29% and the concentration at 8 h [12] was 3.5 ng/mL. For the same compound, the half-life [13] was 7.8 h, the half-life [14] was 5.5 h and the Cmax [15] was 1270 ng/mL. For the same compound, the Cmax [16] was 3830 ng/mL, the AUC(0-t) [17] was 3960 ng·h/mL and the AUC(0-t) [18] was 15300 ng·h/mL. The IC50 [19] was 16.1 nM, the IC50 [20] was 146 nM and the IC50 [21] was 55 nM. It also gave an IC50 (CDK4/Cyclin D3) of 13.1 nM, an IC50 [22] of 546 nM and a solubility [23] of 917 µg/mL (≈ 1530 µM). The CLint scaled [24] was 44.9 mL/min/kg, the IC50 (Cytochrome P450 2C19) was 30900 nM and the IC50 [25] was 9940 nM. The inhibition in vivo at 5 mg/kg (OVCAR-3 [26]) was 111%, the inhibition in vivo at 10 mg/kg (OVCAR-3 [27]) was 111% and the Activity [28] was “Non-toxic”. It also gave a half-life [29] of 2 h, a half-life [30] of 1.6 h and a half-life [31] of 1.7 h. The Cmax [32] was 75 ng/mL, the Cmax [33] was 130 ng/mL and the AUC(0-t) [34] was 84 ng·h/mL. For the same compound, the AUC(0-t) [35] was 812 ng·h/mL, the Activity [36] was “Non-toxic” and the residual activity [37] was 0.85%. For the same compound, the residual activity [38] was 5.6%, the residual activity [39] was 28% and the residual activity [40] was 9.4%. For the same compound, the residual activity [41] was 19%, the residual activity [42] was 20% and the residual activity [43] was 2.7%. The residual activity (CDK18/Cyclin Y) was 2.9%.
